Assays:
S. aureus (KCCM12256) = assay: Growth inhibition experiment in liquid medium (absorbance at 600 nm); assay type: cell-based, Staphylococcus aureus; details: for concentration at which growth was completely inhibited: liquid M9-based medium, 37° C., 200 rpm, OD600
Experimental: (§1) S. aureus (KCCM12256) and S. epidermidis (KCCM35494) distributed from the Korean Culture Center of Microorganisms were used. The medium for Staphylococci used a M9 salt supplemented with 2 mM MgSO4, 0.1 mM CaCl2), 1% (w/v) glucose, 1% (w/v) casamino acid, 1 mM thiamine HCl, and 0.05 mM nicotinamide. The thiamine-HCl solution and the nicotinamide solution were filtered using a filter having a pore size of 0.2 μm, and the other components were autoclaved at 121° C. for 15 minutes and used. After mixing the medium components according to their respective concentrations, the mixture was filtered again using a filter having a pore size of 0.2 μm.
(§2) In the growth inhibition experiment, the S. aureus and the S. epidermidis were seed-cultured at 37° C. and 200 rpm for 24 hours and then subcultured. After incubation up to the mid-exponential phase (OD600=2.5) through the subculture, the bacteria were inoculated into liquid media containing the agarooligosaccharide at concentrations of 0 mg/mL, 1 mg/mL, 2 mg/mL, and 4 mg/mL so that the initial absorbance (i.e., initial cell population) thereof at 600 nm was 0.01. Subsequently, each of the above was dispensed in 200 μl aliquots into a 96-well plate, and absorbance was measured while culturing the bacteria. The incubation and the absorbance measurement were performed using Synergy HTX Multi-Mode Reader commercially available from BioTek Instruments, Inc. The incubation was performed at 37° C. and 200 rpm, and the absorbance was measured at a wavelength of 600 nm. […]
The growth inhibition test of Staphylococci was carried out in the same manner as in Example 1, except that AHG (1, 2, 4, and 8 mg/mL) was used instead of the agarooligosaccharide. […]

[1] = system: S. epidermidis (KCCM35494); assay: as above; assay type: cell-based, Staphylococcus epidermidis
Experimental: as §1
as §2, with “bacteria.” for “bacteria. The incubation and the absorbance measurement were performed using Synergy HTX Multi-Mode Reader commercially available from BioTek Instruments, Inc. The incubation was performed at 37° C. and 200 rpm, and the absorbance was measured at a wavelength of 600 nm.”

S. aureus [2] = assay: LIVE/DEAD BacLight cell viability assay; assay type: cell-based, Staphylococcus aureus; details: agarobiose 2 mg/mL, 8 hours post-treatment
Experimental: The effect of the addition of agarobiose on the survival of S. aureus was tested using an Invitrogen LIVE/DEAD BacLight bacterial viability kit. […] To this end, after adjusting the number of S. aureus in a liquid medium containing agarobiose at 2 mg/mL so that the absorbance at 600 nm was 0.5, the S. aureus was cultured at 37° C. and 200 rpm. At 0 and 8 hours after incubation, the cells were washed with 0.85% physiological saline, resuspended in PBS buffer, and stained in accordance with the kit's protocol. Equal volumes of SYTO® 9 and propidium iodide reagents included in the kit were added and then reacted for 15 minutes in the dark.

S. aureus [3] = assay: Number of viable Staphylococci over culture time (CFU count); assay type: cell-based, Staphylococcus aureus; details: agarobiose concentrations of 2 mg/mL or more
Experimental: (§3) In order to observe changes in staphylococcal growth according to culture time after the addition of agarobiose, the number of viable Staphylococci was monitored for 16 hours or 32 hours. To this end, the initial cell concentration was adjusted to an average of about 6.5×10^6 CFU/mL for both S. aureus and S. epidermidis, and the experiment was carried out at agarobiose concentrations of 0, 2, and 4 mg/mL.
(§4) The same culture conditions as in the method of Example 1 were applied, except that agarobiose concentrations of 0, 2, and 4 mg/mL were applied. At a working volume of 10 mL, the number of viable cells instead of absorbance was measured. To this end, the original sample was taken at each time point, diluted to 10^−3 to 10^−6 using 0.85% physiological saline, and then dispensed onto a trypticase soy agar (TSA; BD Bioscience, Franklin Lakes, N.J.) medium. After 16 to 24 hours, colony-forming unit (CFU)/mL was calculated and converted based on a dilution factor.

S. aureus [4] = assay: Disk diffusion assay; assay type: cell-based, Staphylococcus aureus; details: 50 to 150 μg/disk, 37° C., 16 hours
Experimental: (§5) The disk diffusion assay is a common method of determining whether microbial growth is inhibited based on the diffusion of antibiotics in a disk. Accordingly, agarobiose was dispensed in an amount of 0 to 150 μg/disk on each disk to observe the growth of Staphylococci.
(§6) To this end, a solid medium for a disk diffusion assay having the same composition as in Example 1 was used, except that 1.5% agar was added to the liquid medium. […] First, the disks were prepared such that they contained agarobiose in an aqueous state in amounts of 0, 50, 100, and 150 μg/disk. Subsequently, a staphylococcal culture was streaked on the provided solid medium using a sterile cotton swab so that the Staphylococci were evenly distributed on the medium, and the prepared disks were placed on the solid medium inoculated with the bacteria. Subsequently, after culturing the bacteria at 37° C. for 16 hours, it was observed that a zone of inhibition appeared.

S. epidermidis [5] = assay: Number of viable Staphylococci over culture time (CFU count); assay type: cell-based, Staphylococcus epidermidis
Experimental: as §3, §4

S. epidermidis [6] = assay: Disk diffusion assay; assay type: cell-based, Staphylococcus epidermidis; details: 50 to 150 μg/disk, 37° C., 16 hours
Experimental: as §5, §6

[7] = liquid medium, OD600, 1, 2, 4 and 8 mg/mL tested

## O=C[C@H](O)[C@@H](O)[C@@H](O)[C@H](O)CO [galactose, reference compound]
S. aureus (KCCM12256); [7]
  growth inhibition: not inhibited at all

## OC[C@H]1OC(O)[C@H](O)[C@@H](O[C@@H]2O[C@H]3CO[C@@H]([C@@H]2O)[C@@H]3O)[C@H]1O (stereo partly drawn) [neoagarobiose, reference compound]
S. aureus (KCCM12256)
  concentration at which growth was completely inhibited: > 20 mg/mL

## O=C[C@@H](O)[C@@H]1OC[C@H](O)[C@H]1O [AHG, 3,6-anhydro-L-galactose]
[1]; [7]
  concentration at which growth was almost completely inhibited: 8 mg/mL
S. aureus (KCCM12256); [7]
  concentration at which growth was almost completely inhibited: 8 mg/mL

## OC[C@H]1O[C@@H](O[C@H]2[C@H]3OC[C@@H]2OC(O)[C@H]3O)[C@H](O)[C@@H](O)[C@H]1O (mixture of isomers) [agarobiose]
S. aureus [2]
  cell viability (green/red fluorescence): caused the death of S. aureus
S. aureus [3]
  growth (viable cell count): inhibited
S. aureus [4]
  growth around disk (zone of inhibition): did not grow at all
[1]; liquid M9-based medium, 37° C., 200 rpm, OD600
  concentration at which growth was completely inhibited: 2 mg/mL
S. epidermidis [5]; 2 mg/mL and 4 mg/mL, culturing for 16 to 32 hours, initial 6.5×10^6 CFU/mL
  decrease in number of viable cells from the initial number: ≤ 1.5 log10 (CFU/mL)
S. epidermidis [5]; agarobiose concentrations of 2 mg/mL or more
  growth (viable cell count): inhibited
S. epidermidis [6]
  growth around disk (zone of inhibition): did not grow at all
S. aureus (KCCM12256)
  concentration at which growth was completely inhibited: 2 mg/mL

Reference: patent publication US11413305B2, “Use of agar-derived oligosaccharides for inhibiting growth of Staphylococcus” (Korea University Research and Business Foundation, priority 2017, dated 2022)
